# Experimental data published in US4332787A, “Assay for beta-adrenergic antagonists and antibody therefor” (The Massachusetts General Hospital, priority 1980, dated 1982).
# Where two headings read alike, the source gives them in different places.
# How the values were obtained:
# [1] = tested on: antibody (antiacebutolol amine immune serum); test: Competitive binding inhibition of 3H-(-)-propranolol to anti-acebutolol amine antibody (radioimmunoassay); set-up: species or system rabbit; conditions: for competitive inhibition of 3H-propranolol binding to the antibody: sera containing the drug
# Protocol: Acebutolol amine having the formula: [drawing 3] was covalently linked to lysozyme. 150 mg of acebutolol amine was dissolved in 1.0 N HCl and was cooled to 0° C. in a salt ice bath. To this solution was added 1 cc of 0.5 M NaNO2 also at 0° C. and the resultant mixture was allowed to stand at 0° C. for 10 min. A mixture of 200 mg crystalline lysozyme in 15% aqueous sodium carbonate at 0° C. was added to 2.0 cc of the above mixture. […] The resultant product was dialyzed against phosphate buffered saline and the purified conjugate was frozen in dry ice-acetone and stored at -20° C. The product then was thawed and centrifuged for 10 min at 3000 rpm. The supernatant was recovered and mixed with Tris buffer, pH 7 at a concentration of 30 mg/ml.
# Albino rabbits were immunized with this conjugate at monthly intervals for four months. Each rabbit received intracutaneous toepad injections of 0.5 mg of protein emulsified in complete Freund's adjuvant.
# (§1) The assays were performed in triplicate. […] For each determination, an identical volume of preimmune serum was assayed as a control for antibody binding. […] After an incubation period of 1 hr at 25° C., 100 μl of goat-antirabbit 1 gG antiserum was added to each tube with 50 μl of normal rabbit 1 gG as a carrier for the precipitation. The tubes were again incubated at 25° C. for 30 min. The precipitates were washed twice in Tris buffer and spun in a Sorvall table-top centrifuge at 2,000 rpm×10 min. After the supernatant was decanted, the precipitates were dissolved in 1 ml of 1% sodium dodecyl sulfate. Bound radioactivity was counted in the presence of 10 ml of Aquasol-2 (New England Nuclear) in a Packard Tricarb liquid scintillation counter with a counting efficiency of 40%.
# (§2) The assays to determine the competitive binding of potentially cross-reactive drugs were performed on sera obtained from patients on long-term maintenance with single drugs; digoxin, imipramine and alphamethyldopa, respectively.
# beta-adrenergic receptor = conditions: metabolite of propranolol, result in words, cited from earlier work
# [2] = result in words, cited from earlier work
# clinical = conditions: for half-life: human, in vivo, iv
# Protocol: as §1, §2
# To further document the reproducibility of the assay, each serum sample from a single subject was assayed in replicate fashion at dilutions of 1:2, 1:3 and 1:4 in pooled human serum.
# [3] = tested on: exercise heart rate (patients); test: Cardiovascular stress testing of patients on oral propranolol, serum propranolol concentration vs. heart rate and blood pressure; assay type: in vivo, human
# Protocol: The assays were performed in triplicate. […] The ^3 H-(-)-propranolol was obtained from New England Nuclear Corporation. […] The standard curve for the radioimmunoassay was derived from triplicate assay of pooled human serum containing varying amounts of added (±) propranolol HCl. For each determination, an identical volume of preimmune serum was assayed as a control for antibody binding. […] After an incubation period of 1 hr at 25° C., 100 μl of goat-antirabbit 1 gG antiserum was added to each tube with 50 μl of normal rabbit 1 gG as a carrier for the precipitation. The tubes were again incubated at 25° C. for 30 min. The precipitates were washed twice in Tris buffer and spun in a Sorvall table-top centrifuge at 2,000 rpm×10 min. After the supernatant was decanted, the precipitates were dissolved in 1 ml of 1% sodium dodecyl sulfate. Bound radioactivity was counted in the presence of 10 ml of Aquasol-2 (New England Nuclear) in a Packard Tricarb liquid scintillation counter with a counting efficiency of 40%.
# All subjects were submitted to standard, graded exercise according to the Bruce protocol, and 36 of 54 patients attained at least Stage II of exertion (greater than 6 min of sustained exertion).
smiles,measurement,setting,value
C[C@](N)(Cc1ccc(O)c(O)c1)C(=O)O [alpha methyldopa],competitive inhibition of 3H-propranolol binding to the antibody,[1]; result in words,failed to produce significant competitive inhibition
CN(C)CCCN1c2ccccc2CCc2ccccc21 [imipramine],competitive inhibition of 3H-propranolol binding to the antibody,[1]; result in words,failed to produce significant competitive inhibition
NCCc1ccc(O)c(O)c1 [dopamine],competitive inhibition of 3H-propranolol binding to the antibody,[1]; result in words,failed to produce significant competitive inhibition
CC(C)NCC(O)COc1ccc(O)c2ccccc12 (stereo not drawn) [4-hydroxypropranolol],Kd,"[1]; 3H-(-)-propranolol displacement from antibody, read-out: apparent KD (competitive binding inhibition)",10 nM
same,biological activity at the beta-adrenergic receptor,beta-adrenergic receptor,equipotent beta adrenergic receptor antagonist
same,biological activity at the beta-adrenergic receptor,beta-adrenergic receptor; listed as 4 OH-propranolol,retains full biological activity
same,detectability of metabolite in serum,[2],detectable in serum only after the oral route of drug administration
CC(C)NCC(O)COc1cccc2ccccc12 (racemic) [propranolol],half-life,clinical; range of serum half-life observed in subjects,300 to 450 min
same,half-life,clinical; serum half-life,~450 min
same,time the drug remains detectable in serum,clinical; single intravenous administration,six to twelve
same,correlation between increases in blood pressure or heart rate and serum concentration,"[3]; 54 patients, exercise, result in words",lack of correlation
same,"relationship of basal heart rate to plasma concentration, response to exercise, or administered dose","[3]; 54 patients, long-term oral propranolol, result in words",failed to show any significant relationship
same,p of linear relationship between exercise response (percent of maximal predicted heart rate for age) and serum propranolol concentration,"[3]; FIG. 3, linear regression analysis",< 0.0005
same,average daily dose in adequately blocked patients,"[3]; adequately blocked patients, oral",2.45 ± 2.89 mg/kg/day
same,"p of difference in average daily dose, adequately vs. inadequately blocked patients","[3]; human, in vivo",< 0.001
same,average daily dose in inadequately blocked patients,"[3]; inadequately blocked patients, oral",1.14±0.62
same,patients who achieved an exercise response of <67% of predicted,[3]; serum level <250 ng/ml,3/33
same,patients with exercise response consistent with adequate beta-adrenergic blockade,[3]; serum level >250 ng/ml,10/16
same,correlation of serum propranolol and heart rate response to maximal exercise,"[3]; study of 56 patients, result in words",highly significant
same,conversion by the liver to 4 OH-propranolol,[2]; oral administration,a significant fraction of the administered dose is converted by the liver to 4 OH-propranolol
same,bio-availability,[2],markedly variable bio-availibility
NC[C@H](O)c1ccc(O)c(O)c1 [(-)-norepinephrine],competitive inhibition of 3H-propranolol binding to the antibody,[1]; result in words,failed to produce significant competitive inhibition
C[C@H]1O[C@@H](O[C@H]2[C@@H](O)C[C@H](O[C@H]3[C@@H](O)C[C@H](O[C@H]4CC[C@@]5(C)[C@H](CC[C@@H]6[C@@H]5C[C@@H](O)[C@]5(C)[C@@H](C7=CC(=O)OC7)CC[C@]65O)C4)O[C@@H]3C)O[C@@H]2C)C[C@H](O)[C@@H]1O [digoxin],competitive inhibition of 3H-propranolol binding to the antibody,[1]; result in words,failed to produce significant competitive inhibition
CC(=O)c1ccc(N)cc1OCC(O)CNC(C)C (stereo not drawn) [acebutolol amine],competitive binding inhibition curve compared with propranolol,"[1]; FIG. 1, result in words",yields a curve analogous to the displacement binding observed with propranolol
